Results reported in patent publication US11963960B2 (Flash Therapeutics, LLC, priority 2020, dated 2024).

Target: N-terminally GST-tagged HCK (75-526) (Homo sapiens (Human), UniProt P08631)
Assay: HCK Kinase Assay (ProFluor Src-Family Kinase Assay)
Format: biochemical
Details: HCK inhibitory activity, 50 μM ATP; read-out: HCK Activity
Method: The procedure of ProFluor Src-Family Kinase Assay (Promega, Cat. No. V1271) was then followed. To the reaction was added 5 μL Protease solution and the mixture was incubated for 60 minutes at room temperature (22-25° C.), followed by 5 μL Stabilizer solution. The fluorescence signal was read on an Envision multilabel plate reader (Perkin Elmer). The R110 was then read at an excitation wavelength of 485 nm and an emission wavelength of 530 nm. The AMC signal was read at an excitation wavelength of 355 nm and an emission wavelength of 460 nm.

N-terminally GST-tagged HCK (75-526), sequence (P08631 75-526): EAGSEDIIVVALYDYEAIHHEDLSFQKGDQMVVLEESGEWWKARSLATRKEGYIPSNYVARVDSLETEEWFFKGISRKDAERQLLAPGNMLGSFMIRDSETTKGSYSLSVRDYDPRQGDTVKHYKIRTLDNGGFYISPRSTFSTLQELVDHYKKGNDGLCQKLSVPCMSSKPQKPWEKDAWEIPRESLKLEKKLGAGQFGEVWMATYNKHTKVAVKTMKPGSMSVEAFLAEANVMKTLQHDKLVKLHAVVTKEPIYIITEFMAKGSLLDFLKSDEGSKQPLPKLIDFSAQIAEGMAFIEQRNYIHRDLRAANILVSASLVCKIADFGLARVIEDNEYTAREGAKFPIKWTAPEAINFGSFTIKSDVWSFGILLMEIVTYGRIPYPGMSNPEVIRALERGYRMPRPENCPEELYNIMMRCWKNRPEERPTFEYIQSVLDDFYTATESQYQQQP

Row | SMILES | IC50 [nM]
1 | CN(C)[C@@H]1CN([C@H]2CC[C@H](n3cc(-c4ccc(Oc5ccccc5)cc4F)c4c(N)ncnc43)CC2)C[C@H]1O [Example 73, (3R,4R)-1-((trans)-4-(4-amino-5-(2-fluoro-4-phenoxyphenyl)-7H-pyrrolo[2,3-d]pyrimidin-7-yl)cyclohexyl)-4-(dimethylamino)pyrrolidin-3-ol] | < 50
2 | COc1cc(-c2cn(C3CCN(C4CCN(C)CC4)CC3)c3ncnc(N)c23)ccc1Oc1ccccc1 [Example 149, 5-(3-methoxy-4-phenoxyphenyl)-7-(1′-methyl-[1,4′-bipiperidin]-4-yl)-7H-pyrrolo[2,3-d]pyrimidin-4-amine] | < 50
3 | CN1CCN([C@H]2CC[C@H](n3cc(-c4ccc(Oc5ccccc5)cc4)c4c(N)ncnc43)CC2)CC1(C)C [Example 27, 5-(4-phenoxyphenyl)-7-((trans)-4-(3,3,4-trimethylpiperazin-1-yl)cyclohexyl)-7H-pyrrolo[2,3-d] pyrimidin-4-amine] | < 50
4 | C[C@H]1CC(N2CCC(n3nc(-c4ccc(Oc5ccccc5)cc4F)c4c(N)ncnc43)CC2)CCN1 (stereo partly drawn) [Example 155, 3-(2-fluoro-4-phenoxyphenyl)-1-((2′S)-2′-methyl-[1,4′-bipiperidin]-4-yl)-1H-pyrazolo[3,4-d]pyrimidin-4-amine] | < 50
5 | CN1CCN([C@H]2CC[C@@H](c3cn(-c4ccc(Oc5ccccc5)cc4)c4c(N)ncnc43)CC2)CC1 [Example 176, 7-((cis)-4-(4-methylpiperazin-1-yl)cyclohexyl)-5-(4-phenoxyphenyl)-5H-pyrrolo[3,2-d]pyrimidin-4-amine] | 250 to 10000
6 | Cc1ccc(Oc2ccc(-c3cn([C@H]4CC[C@H](N5CCN(C)CC5)CC4)c4ncnc(N)c34)cc2)cc1 [Example 111, 7-((trans)-4-(4-methylpiperazin-1-yl)cyclohexyl)-5-(4-(p-tolyloxy)phenyl)-7H-pyrrolo[2,3-d]pyrimidin-4-amine] | 50 to 250
7 | CN1CCN([C@H]2CC[C@@H](c3cc(-c4ccc(NC(=O)Nc5cc(C(C)(C)C)on5)cc4)c4c(N)ncnn43)CC2)CC1 [Example 172] | < 50
8 | Nc1ncnc2c1c(-c1ccc(Oc3ccccc3)cc1)cn2[C@H]1CC[C@@H](N2CC(N)C2)CC1 [Example 78, 7-((cis)-4-(3-aminoazetidin-1-yl)cyclohexyl)-5-(4-phenoxyphenyl)-7H-pyrrolo[2,3-d]pyrimidin-4-amine] | 250 to 10000
9 | CC(=O)NN1CCN([C@H]2CC[C@H](n3cc(-c4ccc(Oc5ccccc5)cc4)c4c(N)ncnc43)CC2)CC1 [Example 40, N-(4-((trans)-4-(4-amino-5-(4-phenoxyphenyl)-7H-pyrrolo[2,3-d]pyrimidin-7-yl)cyclohexyl)piperazin-1-yl)acetamide] | < 50
10 | C[C@@H]1CN([C@H]2CC[C@H](n3nc(-c4ccc(Oc5ccccc5)cc4)c4c(N)ncnc43)CC2)CCN1 [Example 14, 1-((trans)-4-((R)-3-methylpiperazin-1-yl)cyclohexyl)-3-(4-phenoxyphenyl)-1H-pyrazolo[3,4-d]pyrimidin-4-amine] | < 50
11 | CN1CCN([C@H]2CC[C@H](n3cc(-c4ccc(Oc5ccccc5)cc4)c4c(O)ncnc43)CC2)CC1 [Example 87, 7-((trans)-4-(4-Methylpiperazin-1-yl)cyclohexyl)-5-(4-phenoxyphenyl)-7H-pyrrolo[2,3-d]pyrimidin-4-ol] | < 50
12 | CC[C@H]1CN([C@H]2CC[C@@H](n3nc(-c4ccc(Oc5ccccc5)cc4F)c4c(N)ncnc43)CC2)CCN1 [Example 32, 1-((cis)-4-((S)-3-ethylpiperazin-1-yl)cyclohexyl)-3-(2-fluoro-4-phenoxyphenyl)-1H-pyrazolo[3,4-d]pyrimidin-4-amine] | 50 to 250
13 | CN1CCN([C@H]2CC[C@@H](c3nc(-c4ccc(Oc5ccccc5)cc4)c4c(N)nccn43)CC2)CC1 [Example 174, 3-((cis)-4-(4-Methylpiperazin-1-yl)cyclohexyl)-1-(4-phenoxyphenyl)imidazo[1,5-a]pyrazin-8-amine] | 250 to 10000
14 | CNC(=O)C=C1CCC(n2cc(-c3ccc(Oc4ccccc4)cc3)c3c(N)ncnc32)CC1 (stereo not shown) [Example 97, 2-(4-(4-amino-5-(4-phenoxyphenyl)-7H-pyrrolo[2,3-d]pyrimidin-7-yl)cyclohexylidene)-N-methylacetamide] | < 50
15 | Nc1ncnc2c1c(-c1ccc(Oc3ccccc3)cc1)cn2[C@H]1CC[C@@H](N2CCNC3(CC3)C2)CC1 [Example 36, 7-((cis)-4-(4,7-diazaspiro[2.5]octan-7-yl)cyclohexyl)-5-(4-phenoxyphenyl)-7H-pyrrolo[2,3-d]pyrimidin-4-amine] | 50 to 250
16 | Nc1ncnc2c1c(-c1ccc(Oc3ccccc3)cc1)cn2[C@H]1CC[C@@H](N2CCN3CCCC3C2)CC1 (stereo partly drawn) [Example 45, 7-((cis)-4-(hexahydropyrrolo[1,2-a]pyrazin-2(1H)-yl)cyclohexyl)-5-(4-phenoxyphenyl)-7H-pyrrolo[2,3-d]pyrimidin-4-amine] | 250 to 10000

Row | SMILES | IC50 [nM]
17 | Nc1ncn([C@H]2CC[C@H](n3cc(-c4ccc(Oc5ccccc5)cc4)c4c(N)ncnc43)CC2)n1 [Example 81, 7-((trans)-4-(3-amino-1H-1,2,4-triazol-1-yl)cyclohexyl)-5-(4-phenoxyphenyl)-7H-pyrrolo [2,3-d]pyrimidin-4-amine] | < 50
18 | [2H]c1c([2H])c([2H])c(Oc2ccc(-c3cn([C@H]4CC[C@H](N5CCN[C@@H](C)C5)CC4)c4ncnc(N)c34)cc2)c([2H])c1[2H] [Example 125, 7-((trans)-4-((S)-3-methylpiperazin-1-yl)cyclohexyl)-5-(4-pentadeuteriophenoxyphenyl)-7H-pyrrolo[2,3-d]pyrimidin-4-amine] | < 50
19 | CN1CCN([C@H]2CC[C@H](n3cc(-c4ccc(Oc5ccccc5F)cc4)c4c(N)ncnc43)CC2)CC1 [Example 108, 5-(4-(2-fluorophenoxy)phenyl)-7-((trans)-4-(4-methylpiperazin-1-yl)cyclohexyl)-7H-pyrrolo[2,3-d]pyrimidin-4-amine] | < 50
20 | Nc1ncnc2c1c(-c1ccc(Oc3ccccc3)cc1)cn2[C@H]1CC[C@H](N2CC(N)C2)CC1 [Example 77, 7-((trans)-4-(3-aminoazetidin-1-yl)cyclohexyl)-5-(4-phenoxyphenyl)-7H-pyrrolo[2,3-d]pyrimidin-4-amine] | < 50
21 | CN1CCC(N2CCC(n3nc(-c4ccc(Oc5ccccc5)cc4F)c4c(N)ncnc43)CC2)CC1 [Example 147, 3-(2-fluoro-4-phenoxyphenyl)-1-(1′-methyl-[1,4′-bipiperidin]-4-yl)-1H-pyrazolo[3,4-d]pyrimidin-4-amine] | < 50
22 | C[C@@H]1CN([C@H]2CC[C@H](n3cc(-c4ccc(Oc5ccccc5)cc4)c4c(N)ncnc43)CC2)CCN1 [Example 12, 7-((trans)-4-((R)-3-methylpiperazin-1-yl)cyclohexyl)-5-(4-phenoxyphenyl)-7H-pyrrolo[2,3-d]pyrimidin-4-amine] | 250 to 10000
23 | COc1cc(-c2cn([C@H]3CO[C@H](C4CCN(C)CC4)OC3)c3ncnc(N)c23)ccc1Oc1ccccc1 [Example 131, 5-(3-methoxy-4-phenoxyphenyl)-7-((trans)-2-(1-methylpiperidin-4-yl)-1,3-dioxan-5-yl)-7H-pyrrolo[2,3-d]pyrimidin-4-amine] | 50 to 250
24 | CP1(=O)CCN([C@H]2CC[C@@H](n3cc(-c4ccc(Oc5ccccc5)cc4)c4c(N)ncnc43)CC2)CC1 [Example 68, 1-((cis)-4-(4-amino-5-(4-phenoxyphenyl)-7H-pyrrolo[2,3-d]pyrimidin-7-yl)cyclohexyl)-4-methyl-1,4-azaphosphinane 4-oxide] | < 50
25 | C[C@@H]1CN([C@H]2CC[C@@H](n3nc(-c4ccc(Oc5ccccc5)cc4F)c4c(N)ncnc43)CC2)CCN1 [Example 18, 3-(2-fluoro-4-phenoxyphenyl)-1-((cis)-4-((R)-3-methylpiperazin-1-yl)cyclohexyl)-1H-pyrazolo[3,4-d]pyrimidin-4-amine] | 250 to 10000
26 | CC(C)c1cc(NC(=O)Nc2ccc(-c3cn([C@H]4CC[C@H](N5CCN(C)CC5)CC4)c4ncnc(N)c34)cc2)no1 [Example 119, 1-(4-(4-amino-7-((trans)-4-(4-methylpiperazin-1-yl)cyclohexyl)-7H-pyrrolo[2,3-d]pyrimidin-5-yl)phenyl)-3-(5-isopropylisoxazol-3-yl)urea] | < 50
27 | CN1CCN([C@H]2CC[C@H](n3cc(-c4ccc(NC(=O)Nc5cc(C(C)(C)C)on5)cc4)c4c(N)ncnc43)CC2)CC1 [Example 120, 1-(4-(4-amino-7-((trans)-4-(4-methylpiperazin-1-yl)cyclohexyl)-7H-pyrrolo[2,3-d]pyrimidin-5-yl)phenyl)-3-(5-(tert-butyl)isoxazol-3-yl)urea] | < 50
28 | CN1CCN([C@H]2CC[C@H](c3nc(-c4ccc(NC(=O)Nc5cc(C(C)(C)C)on5)cc4)c4c(N)nccn43)CC2)CC1 [Example 175, 1-(4-(8-amino-3-((trans)-4-(4-methylpiperazin-1-yl)cyclohexyl)imidazo[1,5-a]pyrazin-1-yl)phenyl)-3-(5-(tert-butyl)isoxazol-3-yl)urea] | < 50
29 | Nc1ncnc2c1c(-c1ccc(Oc3ccccc3)cc1)cn2[C@H]1CC[C@H](N2CCSCC2)CC1 [Example 63, 5-(4-phenoxyphenyl)-7-((trans)-4-thiomorpholinocyclohexyl)-7H-pyrrolo[2,3-d]pyrimidin-4-amine] | 250 to 10000
30 | Nc1ncnc2c1c(-c1ccc(Oc3ccccc3)cc1)cn2C1CCC(O)(Cn2ccnc2)CC1 (stereo not shown) [Example 101, 1-((1H-Imidazol-1-yl)methyl)-4-(4-amino-5-(4-phenoxyphenyl)-7H-pyrrolo[2,3-d]pyrimidin-7-yl)cyclohexanol] | 50 to 250
31 | Nc1ncnc2c1c(-c1ccc(Oc3ccccc3)cc1)cn2[C@H]1CC[C@H](N2CCNC3(CC3)C2)CC1 [Example 35, 7-((trans)-4-(4,7-diazaspiro[2.5]octan-7-yl)cyclohexyl)-5-(4-phenoxyphenyl)-7H-pyrrolo[2,3-d]pyrimidin-4-amine] | < 50
